Assay results as given in ChEMBL document CHEMBL3352021, “Naphthyridinone (NTD) integrase inhibitors 4. Investigating N1 acetamide substituent effects with C3 amide groups” (Bioorg Med Chem Lett, 2014).

Experiments:
[1] = tested on: Human immunodeficiency virus; experiment: Antiviral activity against pseudotyped HIV by luciferase reporter gene assay; format: functional, organism-based; settings: Human immunodeficiency virus 1
[2] = molecular target: Human immunodeficiency virus type 1 integrase (Human immunodeficiency virus 1, UniProt Q7ZJM1); experiment: Inhibition of recombinant HIV-1 integrase by strand-transfer assay
[3] = tested on: Human immunodeficiency virus; experiment: Antiviral activity against pseudotyped HIV by luciferase reporter gene assay in presence of human serum albumin; format: functional, organism-based; settings: Human immunodeficiency virus 1
[4] = Plasma clearance in rat at 1 mg/kg, iv
[5] = Ratio of plasma concentration in rat at 5 mg/kg, po to IC90 for HIV infected in PBMC assessed as protein-adjusted compound concentration; format: ADME, organism-based; parameters: dose 5 mg/kg, route oral; settings: in vivo
[6] = Ratio of plasma concentration in dog at 5 mg/kg, po to IC90 for HIV infected in PBMC assessed as protein-adjusted compound concentration; format: ADME, organism-based; parameters: dose 5 mg/kg, route oral; settings: in vivo
[7] = Half life in cynomolgus monkey at 1 mg/kg, iv as bolus dose; format: ADME, organism-based, Macaca fascicularis; parameters: dose 1 mg/kg, route intravenous; settings: in vivo
[8] = Plasma clearance in cynomolgus monkey at 1 mg/kg, iv
[9] = Oral bioavailability in dog at 5 mg/kg; format: ADME, organism-based, Canis lupus familiaris; settings: in vivo
[10] = tested on: Human immunodeficiency virus; experiment: Antiviral activity against HIV infected in PBMC; format: functional, organism-based; settings: Human immunodeficiency virus 1
[11] = Plasma clearance in dog at 1 mg/kg, iv
[12] = Half life in dog at 1 mg/kg, iv as bolus dose; format: ADME, organism-based, Canis lupus familiaris; parameters: dose 1 mg/kg, route intravenous; settings: in vivo
[13] = Inhibition of CYP450 (unknown origin) up to 33 uM; format: ADME; settings: human
[14] = tested on: Human immunodeficiency virus; experiment: Antiviral activity against HIV infected in PBMC assessed as protein-adjusted compound concentration; format: functional, organism-based; settings: Human immunodeficiency virus 1
[15] = tested on: Human immunodeficiency virus; experiment: Ratio of IC50 for pseudotyped HIV by luciferase reporter gene assay in presence of human serum albumin to IC50 for pseudotyped HIV by luciferase reporter gene assay; format: functional
[16] = Oral bioavailability in rat at 5 mg/kg; format: ADME, organism-based; settings: in vivo
[17] = Half life in rat at 1 mg/kg, iv as bolus dose; format: ADME, organism-based; parameters: dose 1 mg/kg, route intravenous; settings: in vivo
[18] = Oral bioavailability in cynomolgus monkey at 5 mg/kg; format: ADME, organism-based, Macaca fascicularis; settings: in vivo
[19] = Ratio of plasma concentration in cynomolgus monkey at 5 mg/kg, po to IC90 for HIV infected in PBMC assessed as protein-adjusted compound concentration; format: ADME, organism-based; parameters: dose 5 mg/kg, route oral; settings: in vivo
Cytochrome P450 1A2 = molecular target: T1, Cytochrome P450 1A2 (Homo sapiens, UniProt P05177); experiment: Inhibition of CYP1A2 (unknown origin) at 4.7 uM; format: ADME
T1 sequence (P05177 whole entry): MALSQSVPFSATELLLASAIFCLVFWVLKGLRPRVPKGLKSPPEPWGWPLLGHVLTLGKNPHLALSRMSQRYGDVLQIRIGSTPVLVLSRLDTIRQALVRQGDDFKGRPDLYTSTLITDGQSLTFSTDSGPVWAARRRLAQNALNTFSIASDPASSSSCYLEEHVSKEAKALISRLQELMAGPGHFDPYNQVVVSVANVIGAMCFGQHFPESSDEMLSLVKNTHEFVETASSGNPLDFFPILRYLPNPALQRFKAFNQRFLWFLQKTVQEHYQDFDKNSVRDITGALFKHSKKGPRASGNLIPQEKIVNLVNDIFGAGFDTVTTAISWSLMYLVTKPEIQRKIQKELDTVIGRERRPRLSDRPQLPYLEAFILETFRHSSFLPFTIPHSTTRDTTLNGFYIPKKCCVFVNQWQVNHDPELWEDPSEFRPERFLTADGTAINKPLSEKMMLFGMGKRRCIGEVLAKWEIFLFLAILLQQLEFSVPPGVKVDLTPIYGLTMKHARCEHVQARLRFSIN

Chain of Human immunodeficiency virus type 1 integrase (Q7ZJM1 whole entry): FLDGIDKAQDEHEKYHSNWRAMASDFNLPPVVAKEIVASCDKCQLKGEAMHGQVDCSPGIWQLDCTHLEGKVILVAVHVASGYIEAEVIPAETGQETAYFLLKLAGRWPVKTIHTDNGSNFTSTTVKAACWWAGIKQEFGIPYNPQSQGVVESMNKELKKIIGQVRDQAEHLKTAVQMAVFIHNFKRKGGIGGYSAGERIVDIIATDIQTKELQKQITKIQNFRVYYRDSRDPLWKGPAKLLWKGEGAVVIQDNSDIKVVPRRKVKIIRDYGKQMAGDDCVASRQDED

Row | Structure (SMILES) | IC50 [1] [nM] | IC50 [2] [nM] | IC50 [3] [nM] | other results
1 | CCNC(=O)Cn1c(=O)c(C(=O)NC)c(O)c2ncc(Cc3ccc(F)cc3)cc21 | 2.9 | 8.2 | 11 | –
2 | CNC(=O)c1c(O)c2ncc(Cc3ccc(F)cc3)cc2n(CC(N)=O)c1=O | 2.2 | 7.6 | 56 | –
3 | CNC(=O)Cn1c(=O)c(C(=O)NC)c(O)c2ncc(Cc3ccc(F)cc3)cc21 | 3.3 | 9.3 | 22 | –
4 | CNC(=O)c1c(O)c2ncc(Cc3ccc(F)cc3)cc2n(CC(=O)N(C)C)c1=O | 5.9 | 9.3 | 19 | clearance [4]: 0.7 mL/min/kg; Ratio [5]: 2.4; Ratio [6]: 0.1; half-life [7]: 5 h; clearance [8]: 6.3 mL/min/kg; bioavailability [9]: 75%; IC50 [10]: 4.2 nM; clearance [11]: 10.9 mL/min/kg; half-life [12]: 1.3 h; inhibition (INH) [13]: Not Active; IC50 [14]: 14 nM; IC90 [14]: 55 nM; Ratio IC50 [15]: 3.3; bioavailability [16]: 69%; half-life [17]: 13.8 h; bioavailability [18]: 60%; Ratio [19]: 0.7
5 | CCN(CC)C(=O)Cn1c(=O)c(C(=O)NC)c(O)c2ncc(Cc3ccc(F)cc3)cc21 | 9.2 | 4.4 | 17 | –
6 | CNC(=O)c1c(O)c2ncc(Cc3ccc(F)cc3)cc2n(CC(=O)N2CCCC2)c1=O | 4.9 | 13 | 16 | –
7 | CCCNC(=O)Cn1c(=O)c(C(=O)NC)c(O)c2ncc(Cc3ccc(F)cc3)cc21 | 5.5 | 9.2 | 14 | –
8 | CNC(=O)c1c(O)c2ncc(Cc3ccc(F)cc3)cc2n(CC(=O)NC(C)C)c1=O | 3.2 | 7.8 | 12 | –
9 | CNC(=O)c1c(O)c2ncc(Cc3ccc(F)cc3)cc2n(CC(=O)NC2CC2)c1=O | 2.6 | 4.4 | 7.6 | –
10 | CNC(=O)c1c(O)c2ncc(Cc3ccc(F)cc3)cc2n(CC(=O)NC(C)(C)C)c1=O | 4.8 | 6.9 | 16 | –
11 | CNC(=O)c1c(O)c2ncc(Cc3ccc(F)cc3)cc2n(CC(=O)NCC2CC2)c1=O | 5.9 | 8 | 33 | –
12 | CNC(=O)c1c(O)c2ncc(Cc3ccc(F)cc3)cc2n(CC(=O)NCC(F)(F)F)c1=O | 1.5 | 7.1 | 15 | –
13 | CNC(=O)c1c(O)c2ncc(Cc3ccc(F)cc3)cc2n(CC(=O)NCCOC)c1=O | 3.7 | 6.8 | 91 | –
14 | CNC(=O)c1c(O)c2ncc(Cc3ccc(F)cc3)cc2n(CC(=O)NCCN(C)C)c1=O | 42 | 22 | 83 | –
15 | CNC(=O)c1c(O)c2ncc(Cc3ccc(F)cc3)cc2n(CC(=O)NOC)c1=O | 3.3 | 5.7 | 13 | –
16 | CN(C)C(=O)Cn1c(=O)c(C(=O)NC2CC2)c(O)c2ncc(Cc3ccc(F)cc3)cc21 | 9.3 | 3 | 193 | –
17 | CN(C)C(=O)Cn1c(=O)c(C(=O)NCCO)c(O)c2ncc(Cc3ccc(F)cc3)cc21 | 17 | 5.7 | 35 | –
18 | COCCNC(=O)c1c(O)c2ncc(Cc3ccc(F)cc3)cc2n(CC(=O)N(C)C)c1=O | 3.1 | 4 | 9 | clearance [4]: 3.6 mL/min/kg; Ratio [5]: 0.5; half-life [7]: 5.4 h; clearance [8]: 9.2 mL/min/kg; bioavailability [9]: 7%; IC50 [10]: 4.3 nM; clearance [11]: 19.5 mL/min/kg; half-life [12]: 1.8 h; inhibition (INH) [13]: Not Active; IC50 [14]: 13 nM; IC90 [14]: 50 nM; Ratio IC50 [15]: 2.9; bioavailability [16]: 59%; half-life [17]: 12.5 h; bioavailability [18]: 31%; Ratio [19]: 0.6
19 | C[C@H](CO)NC(=O)c1c(O)c2ncc(Cc3ccc(F)cc3)cc2n(CC(=O)N(C)C)c1=O | 31 | 8.6 | 40 | –

Row | Structure (SMILES) | IC50 [1] [nM] | IC50 [2] [nM] | IC50 [3] [nM] | other results
20 | C[C@@H](CO)NC(=O)c1c(O)c2ncc(Cc3ccc(F)cc3)cc2n(CC(=O)N(C)C)c1=O | 17 | 7.1 | 24 | –
21 | CN(C)C(=O)Cn1c(=O)c(C(=O)NC(C)(C)CO)c(O)c2ncc(Cc3ccc(F)cc3)cc21 | 3.6 | 6.5 | 82 | –
22 | CN(C)C(=O)Cn1c(=O)c(C(=O)NC2(CO)CCCC2)c(O)c2ncc(Cc3ccc(F)cc3)cc21 | 7.2 | 23 | 24 | –
23 | C[C@@H](O)CNC(=O)c1c(O)c2ncc(Cc3ccc(F)cc3)cc2n(CC(=O)N(C)C)c1=O | 11 | 9.2 | 70 | –
24 | C[C@H](O)CNC(=O)c1c(O)c2ncc(Cc3ccc(F)cc3)cc2n(CC(=O)N(C)C)c1=O | 7.1 | 4.1 | 15 | –
25 | CN(C)C(=O)Cn1c(=O)c(C(=O)NCCN2CCOCC2)c(O)c2ncc(Cc3ccc(F)cc3)cc21 | 19 | 8.6 | 25 | –
26 | COCCNC(=O)c1c(O)c2ncc(Cc3ccc(F)cc3)cc2n(CC(N)=O)c1=O | 4.3 | 7.7 | 22 | –
27 | CNC(=O)Cn1c(=O)c(C(=O)NCCOC)c(O)c2ncc(Cc3ccc(F)cc3)cc21 | 3 | 9 | 14 | clearance [4]: 0.5 mL/min/kg; Ratio [5]: 56; Ratio [6]: 0.1; half-life [7]: 2.3 h; clearance [8]: 2 mL/min/kg; bioavailability [9]: 111%; IC50 [10]: 2.3 nM; inhibition (INH) (Cytochrome P450 1A2): Active; clearance [11]: 13.8 mL/min/kg; half-life [12]: 1.2 h; IC50 [14]: 10 nM; IC90 [14]: 41 nM; Ratio IC50 [15]: 4.5; bioavailability [16]: 51%; half-life [17]: 3.7 h; bioavailability [18]: 19%; Ratio [19]: 0.8
28 | COCCNC(=O)c1c(O)c2ncc(Cc3ccc(F)cc3)cc2n(CC(=O)NC2CC2)c1=O | 3 | 7.3 | 18 | –
29 | COCCNC(=O)c1c(O)c2ncc(Cc3ccc(F)cc3)cc2n(CC(=O)NC2CCC2)c1=O | 3.3 | 8.5 | 39 | –
30 | COCCNC(=O)c1c(O)c2ncc(Cc3ccc(F)cc3)cc2n(CC(=O)NC(C)C)c1=O | 3.2 | 6.2 | 57 | –
31 | COCCNC(=O)c1c(O)c2ncc(Cc3ccc(F)cc3)cc2n(CC(=O)NCC(F)(F)F)c1=O | 2.4 | 11 | 20 | –
32 | COCCNC(=O)c1c(O)c2ncc(Cc3ccc(F)cc3)cc2n(CC(=O)NCCN(C)C)c1=O | 27 | 45 | 124 | –
33 | COCCNC(=O)c1c(O)c2ncc(Cc3ccc(F)cc3)cc2n(CC(=O)N2CCCC2)c1=O | 3.8 | 42 | 11 | –
34 | COCCNC(=O)c1c(O)c2ncc(Cc3ccc(F)cc3)cc2n(CC(=O)N2CCCCC2)c1=O | 3.6 | 4.7 | 12 | –
35 | COCCNC(=O)c1c(O)c2ncc(Cc3ccc(F)cc3)cc2n(CC(=O)N2CCOCC2)c1=O | 3.5 | 7.6 | 6.7 | –
36 | COCCNC(=O)c1c(O)c2ncc(Cc3ccc(F)cc3)cc2n(CC(=O)N2CCN(C)CC2)c1=O | 5.3 | 28 | 13 | –
37 | Cn1c(=O)c(C(=O)NCCO)c(O)c2ncc(Cc3ccc(F)cc3)cc21 [GSK-364735] | 1.7 | 8.1 | – | –
